The subject of test [1] is sheep. The following applies: i.v. injections of 250, 500 and 1,000 ng LH-RH at 2 hourly intervals over 8 days, no gestagen pretreatment; cited from earlier work.
For test [2], the system named is sheep. The following applies: 14-day s.c. progesterone implant, then 250 ng LH-RH at 2 hourly intervals for 48 hours, cited from earlier work.
The subject of test [3] is beef cows. The test can be described thus: Example 2: LH-RH injections at 2 hourly intervals or constant infusion in early post-partum beef cows; progesterone and LH level. The following applies: for No. showing progesterone rise: 2 to 4 days. The class given is in vivo, beef cattle. The method, then:
17 Beef cows were injected with 1.0, 2.5 and 5.0 μg of LH-RH, respectively, in the early post-partum period during 2 to 4 days at 2 hourly intervals, while 21 beef cows were given a constant infusion of identical dosage per unit of time during the same period of time.
Blood samples were taken prior to and during the treatments to determine the LH level. Blood samples for determining the progesterone level were taken during a prolonged period of time after the treatment.

Test [4] relates to beef cows. The test can be described thus: Example 3: PRID progesterone device for 8 days, then constant LH-RH infusion in post-partum beef cows; ovulation. The class given is in vivo, beef cattle. The following applies: PRID for 8 days, then LH-RH constant infusion 2.5 μg/2 h; 5 beef cows. The protocol:
5 Beef cows were treated in the early post-partum period over a period of 8 days by inserting in them an intravaginal device (PRID® of the firm Abbott) containing progesterone. Following withdrawal of the device a LH-RH constant infusion in doses of 2.5 μg/2 h was carried out in the manner described in Example 2. Ovulation occurred during the treatment in all cows, said ovulation being characterized by an increase in the progesterone plasma level.

Another test deals with monkey. Conditions: continuous intravenous injection of LH-RH; cited from earlier work.
The test system of another test is female mature ewes. The test can be described thus: Example 1: progesterone implant pretreatment, then constant LH-RH infusion in ewes; mating, ovulation (laparoscopy), pregnancy. Conditions: for number of ovulations: laparoscopy. The class given is in vivo, sheep (Clun Forest, Welsh Halfbred). The protocol: Implants containing progesterone were administered subcutaneously to 28 female mature ewes of two different breeds ("Clun Forest" and "Welsh Halfbred") for a period of 14 days. 12 Ewes were infused constantly with 125 to 250 ng of LH-RH per hour over a period of 48 hours 2 hours before withdrawing the implants. Four ewes treated with a saline solution served as a control. The sheep were examined by laparoscopy to test them for ovulation, moreover blood samples were taken to determine the progesterone level. 24 hours after starting the infusions, onset of estrus was observed using fertile rams at 4 hourly intervals and the ewes in estrus were mated.

Where [5] appears, read: 125 ng of LH-RH/h constant infusion for 48 h after 14-day progesterone implant.
[6] abbreviates: 250 ng LH-RH/h constant infusion for 48 h after 14-day progesterone implant.

As to “LH-RH: LH/FSH-releasing hormone, provokes release of LH and FSH from the pituitary gland”, the induction of estrus entry with sheep [1] is given as “could not be induced”. Besides, in the test on sheep [2] (5 bred sheep), the “number of bred sheep that became pregnant” value was 3. Besides, the estrus and ovulation result with sheep [2] (5 sheep) is on record as “induced”. In the test with beef cows [3] (all test animals, irrespective of mode of administration and dose (1.0, 2.5, 5.0 μg)), the “plasma LH concentrations during treatment phase compared to pretreatment phase” value is given as “distinct increase”. The “No. showing progesterone rise” value with beef cows [3] (constant infusion 1.0 μg/2 h, total 6 + 3 cows) is recorded as 2; in the test with beef cows [3] (constant infusion 2.5 μg/2 h, total 6 cows), 4; with beef cows [3] (constant infusion 5.0 μg/2 h, total 6 cows) it was 4; in the test on beef cows [3] (injections at 2 hourly intervals, 1.0 μg, total 6 cows), 4; with beef cows [3] (injections at 2 hourly intervals, 2.5 μg, total 6 cows) it was 4; in the test with beef cows [3] (injections at 2 hourly intervals, 5.0 μg, total 5 cows), 4. In the test on beef cows [3] (constant infusion 1.0 μg/2 h, the 3 cows with calvings in summer), the “number of animals that responded (progesterone rise)” value is listed as 2. Moreover, the “response (progesterone rise)” value in the test with beef cows [3] (constant infusion 1.0 μg/2 h, the 6 cows treated after spring calvings) is “did not respond”. In the test with beef cows [4], the “cows in which ovulation occurred during the treatment (increase in progesterone plasma level)” value is given as “all cows”. For the same substance, the “pulsed LH release followed by induction of menstrual cycle and ovulation” value in the test with monkey is given as “failed”. In addition, the figures for the rate of ovulations with female mature ewes (setting [5]) and in the test with female mature ewes (setting [6]) were 1.4 and 1.5, respectively. Also, the number of ovulations in the test with female mature ewes (setting [5]) came to 9; in the test on female mature ewes (setting [6]), 12. Moreover, the “number of mated sheep” value is 10 in the test on female mature ewes (125 ng of LH-RH/h constant infusion for 48 h after 14-day s.c. progesterone implant) and 11 with female mature ewes (250 ng LH-RH/h constant infusion for 48 h after 14-day s.c. progesterone implant). For the same substance, the pregnancy rate with female mature ewes (ewes treated with LH-RH after progesterone implant and mated) was 75%.

(Values after US4673665A, “Process for treating anestrus in ewes or beef cattle” (Hoechst Aktiengesellschaft, priority 1982, dated 1987).)
